# Laboratory results as given in the supplement of paper PMC10307832.
# Columns and labels:
# Assay in all cases: relative viability (nuclei count vs DMSO), 5 days (fraction); higher = more cells survive
# [1] = tested on: NCI-H1944
# Procedure, shortened: (§1)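 Values are medians from duplicate plates. Each reflects relative viability, defined as the nuclei count of treated wells over that of vehicle wells. Lung cancer cell lines in 1536-well plates were pin-tool dosed one day after seeding with one drug alone or with a fixed anchor-drug dose plus five library-drug doses (not always all listed) in √10 steps, then fixed, stained and imaged at 4× after 5 days.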
# [2] = tested on: BEN
# Procedure, shortened: as §1
# [3] = tested on: LCLC-97TM1
# Procedure, shortened: as §1
# [4] = tested on: PC-3 [JPC-3]
# Procedure, shortened: as §1
# [5] = tested on: LC-2-ad
# Procedure, shortened: as §1
# [6] = tested on: HCC-15
# Procedure, shortened: as §1
# [7] = tested on: HCC-366
# Procedure, shortened: as §1
# [8] = tested on: EKVX
# Procedure, shortened: as §1
# [9] = tested on: HCC-827
# Procedure, shortened: as §1
# [10] = tested on: SK-MES-1
# Procedure, shortened: as §1
# [11] = tested on: COR-L23
# Procedure, shortened: as §1
# [12] = tested on: NCI-H1755
# Procedure, shortened: as §1
# [13] = tested on: NCI-H3122
# Procedure, shortened: as §1
# [14] = tested on: NCI-H1993
# Procedure, shortened: as §1
# [15] = tested on: COR-L 105
# Procedure, shortened: as §1
# [16] = tested on: NCI-H2342
# Procedure, shortened: as §1
# [17] = tested on: SK-LU-1
# Procedure, shortened: as §1
# [18] = tested on: NCI-H596
# Procedure, shortened: as §1
# [19] = tested on: LU99A
# Procedure, shortened: as §1
# [20] = tested on: NCI-H1915
# Procedure, shortened: as §1
# [21] = tested on: RERF-LC-KJ
# Procedure, shortened: as §1
smiles,measurement,setting,value
COCC1(CO)C(=O)C2CCN1CC2 (stereo unspecified) [PRIMA-1MET] + COc1cc2c(Oc3ccc(NC(=O)C4(C(=O)Nc5ccc(F)cc5)CC4)cc3F)ccnc2cc1OCCCN1CCOCC1 [Foretinib] (partner 0.25 µM),relative viability,[1]; first compound 0.2 µM,1.02
same,relative viability,[1]; first compound 0.6325 µM,0.789
same,relative viability,[1]; first compound 2 µM,0.837
same,relative viability,[1]; first compound 6.325 µM,0.881
same,relative viability,[1]; first compound 20 µM,0.861
same,relative viability,[2]; first compound 0.2 µM,0.653
same,relative viability,[2]; first compound 0.6325 µM,0.586
same,relative viability,[2]; first compound 6.325 µM,0.741
same,relative viability,[2]; first compound 20 µM,0.954
same,relative viability,[3]; first compound 0.2 µM,0.915
same,relative viability,[3]; first compound 0.6325 µM,0.909
same,relative viability,[3]; first compound 2 µM,0.926
same,relative viability,[3]; first compound 6.325 µM,0.945
same,relative viability,[3]; first compound 20 µM,0.826
same,relative viability,[4]; first compound 0.2 µM,1.12
same,relative viability,[4]; first compound 0.6325 µM,0.942
same,relative viability,[4]; first compound 2 µM,1.05
same,relative viability,[4]; first compound 6.325 µM,1.07
same,relative viability,[4]; first compound 20 µM,0.935
same,relative viability,[5]; first compound 0.2 µM,0.987
same,relative viability,[5]; first compound 2 µM,0.843
same,relative viability,[5]; first compound 6.325 µM,0.887
same,relative viability,[5]; first compound 20 µM,0.966
same,relative viability,[6]; first compound 0.2 µM,1.11
same,relative viability,[6]; first compound 0.6325 µM,0.986
same,relative viability,[6]; first compound 2 µM,1.03
same,relative viability,[6]; first compound 6.325 µM,1.02
same,relative viability,[6]; first compound 20 µM,0.555
same,relative viability,[7]; first compound 0.2 µM,0.84
same,relative viability,[7]; first compound 0.6325 µM,0.946
same,relative viability,[7]; first compound 2 µM,0.826
same,relative viability,[7]; first compound 6.325 µM,0.974
same,relative viability,[7]; first compound 20 µM,0.207
same,relative viability,[8]; first compound 0.2 µM,0.988
same,relative viability,[8]; first compound 0.6325 µM,0.518
same,relative viability,[8]; first compound 6.325 µM,1.1
same,relative viability,[8]; first compound 20 µM,0.843
same,relative viability,[9]; first compound 0.2 µM,1.09
same,relative viability,[9]; first compound 0.6325 µM,0.976
same,relative viability,[9]; first compound 2 µM,0.749
same,relative viability,[9]; first compound 6.325 µM,1.01
same,relative viability,[9]; first compound 20 µM,0.929
same,relative viability,[10]; first compound 0.2 µM,1.11
same,relative viability,[10]; first compound 0.6325 µM,0.941
same,relative viability,[10]; first compound 2 µM,0.795
same,relative viability,[10]; first compound 6.325 µM,1.15
same,relative viability,[10]; first compound 20 µM,0.955
same,relative viability,[11]; first compound 0.2 µM,1.23
same,relative viability,[11]; first compound 0.6325 µM,0.956
same,relative viability,[11]; first compound 2 µM,0.95
same,relative viability,[11]; first compound 6.325 µM,1.06
same,relative viability,[11]; first compound 20 µM,0.0732
same,relative viability,[12]; first compound 0.2 µM,1.02
same,relative viability,[12]; first compound 0.6325 µM,0.932
same,relative viability,[12]; first compound 2 µM,0.809
same,relative viability,[12]; first compound 6.325 µM,0.907
same,relative viability,[12]; first compound 20 µM,0.867
same,relative viability,[13]; first compound 0.2 µM,0.739
same,relative viability,[13]; first compound 0.6325 µM,0.762
same,relative viability,[13]; first compound 2 µM,0.963
same,relative viability,[13]; first compound 6.325 µM,0.984
same,relative viability,[13]; first compound 20 µM,0.882
same,relative viability,[14]; first compound 0.2 µM,0.875
same,relative viability,[14]; first compound 0.6325 µM,0.767
same,relative viability,[14]; first compound 2 µM,0.657
same,relative viability,[14]; first compound 6.325 µM,0.803
same,relative viability,[14]; first compound 20 µM,0.754
same,relative viability,[15]; first compound 0.2 µM,1.48
same,relative viability,[15]; first compound 0.6325 µM,1.02
same,relative viability,[15]; first compound 2 µM,1.17
same,relative viability,[15]; first compound 6.325 µM,1.2
same,relative viability,[15]; first compound 20 µM,0.551
same,relative viability,[16]; first compound 0.2 µM,1.06
same,relative viability,[16]; first compound 0.6325 µM,0.986
same,relative viability,[16]; first compound 2 µM,0.887
same,relative viability,[16]; first compound 6.325 µM,1.01
same,relative viability,[16]; first compound 20 µM,0.99
same,relative viability,[17]; first compound 0.2 µM,1
same,relative viability,[17]; first compound 0.6325 µM,0.863
same,relative viability,[17]; first compound 2 µM,0.885
same,relative viability,[17]; first compound 6.325 µM,0.834
same,relative viability,[17]; first compound 20 µM,0.405
same,relative viability,[18]; first compound 0.2 µM,0.91
same,relative viability,[18]; first compound 0.6325 µM,0.924
same,relative viability,[18]; first compound 2 µM,0.697
same,relative viability,[18]; first compound 6.325 µM,0.318
same,relative viability,[18]; first compound 20 µM,0.0971
same,relative viability,[19]; first compound 0.2 µM,0.84
same,relative viability,[19]; first compound 0.6325 µM,0.806
same,relative viability,[19]; first compound 2 µM,0.813
same,relative viability,[19]; first compound 6.325 µM,0.913
same,relative viability,[19]; first compound 20 µM,0.394
same,relative viability,[20]; first compound 0.2 µM,1.12
same,relative viability,[20]; first compound 0.6325 µM,0.958
same,relative viability,[20]; first compound 6.325 µM,1.08
same,relative viability,[20]; first compound 20 µM,1.05
same,relative viability,[21]; first compound 0.2 µM,0.872
same,relative viability,[21]; first compound 0.6325 µM,0.878
same,relative viability,[21]; first compound 2 µM,0.922
same,relative viability,[21]; first compound 6.325 µM,0.957
same,relative viability,[21]; first compound 20 µM,0.819
